Measurements: patent US20250179047A1, “5-[7-(3,4-DIHYDRO-1H-ISOQUINOLINE-2-CARBONYL)-1,2,3,4 TETRAHYDROISOQUINOLIN-6-YL]-1H-PYRROLE-3-CARBOXAMIDE DERIVATIVES, PHARMACEUTICAL COMPOSITIONS CONTAINING THEM AND THEIR USES AS PRO-APOPTOTIC AGENTS” (LES LABORATOIRES SERVIER, priority 2022, published 2025)

Tests used:
[1] = target: BCL2 WT (Homo sapiens (Human), UniProt P10415); assay: TR-FRET competitive binding assay, BCL2 WT; conditions: Ki determined from IC50, read-out: TR_FRET EKI_Bcl2 WT
Outline: (§1)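 Competitive TR-FRET displacement of fluorescein-PUMA peptide (2 or 20 nM) from 0.5 nM terbium-labelled N-terminal Halo-fusion BCL2 (1-207, wild type or mutant) or BCLXL (2-196), expressed in E. coli. Buffer 50 mM Hepes pH 7.5, 150 mM NaCl, 5% DMSO; 2 h at 23°C. 520/495 nm ratio fitted over 11 points for IC50, converted to Ki.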

[2] = tested on: KMS-12-PE Bcl-2 G101V; assay: In vitro cytotoxicity CellTiter-Glo 48 h, KMS-12-PE Bcl-2 G101V; format: cell-based; conditions: for Ratio (G101V/WT): C50 KMS-12-PE Bcl-2 G101V over C50 KMS-12-PE Bcl-2 WT; for IC50: Homo sapiens, KMS-12-PE, 48 h, CellTiter-Glo, C50 = concentration needed to reach 50% of the cellular viability
Outline: (§2)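 CTG luminescence read-out; C50 = concentration reaching 50% cellular viability. Cells: KMS-12-PE expressing Bcl-2 WT or G101V (lentiviral, TagRFP-sorted). 11-pt curve, 48 h, 37 °C/5% CO2.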

[3] = target: BCL2 D111A (Homo sapiens, UniProt P10415, D111A); assay: TR-FRET competitive binding assay, BCL2 D111A; conditions: Ki determined from IC50, read-out: TR_FRET EKI_Bcl2 D111A
Outline: as §1

[4] = tested on: BCL2 G101V; assay: TR-FRET competitive binding assay, BCL2 G101V; design: species or system human; conditions: ratio Ki BCL2 G101V / Ki BCL2 WT
Outline: as §1

[5] = target: BCL2 G101V (Homo sapiens, UniProt P10415, G101V); assay: TR-FRET competitive binding assay, BCL2 G101V; conditions: BCL2 G101V; Ki determined from IC50; read-out: TR_FRET EKI_Bcl2 G101V
Outline: as §1

[6] = target: BCLXL WT (Homo sapiens (Human), UniProt Q07817); assay: TR-FRET competitive binding assay, BCLXL WT; conditions: for Ki: BCLXL WT, Ki determined from IC50, read-out: TR_FRET EKI BclxL; for TR_FRET EKI BCLxL/WT selectivty ratio: ratio Ki BCLxL / Ki BCL2 WT
Outline: as §1

[7] = tested on: KMS-12-PE Bcl-2 WT; assay: In vitro cytotoxicity CellTiter-Glo 48 h, KMS-12-PE Bcl-2 WT; format: cell-based; conditions: Homo sapiens, KMS-12-PE, C50 = concentration needed to reach 50% of the cellular viability
Outline: as §2

[8] = target: BCL2 D103Y (Homo sapiens, UniProt P10415, D103Y); assay: TR-FRET competitive binding assay, BCL2 D103Y; conditions: Ki determined from IC50, read-out: TR_FRET EKI_Bcl2 D103Y
Outline: as §1

[9] = target: BCL2 F104I (Homo sapiens, UniProt P10415, F104I); assay: TR-FRET competitive binding assay, BCL2 F104I; conditions: Ki determined from IC50, read-out: TR_FRET EKI_Bcl2 F104I
Outline: as §1

Chain of BCLXL WT (Q07817 other isoform, or with tags, fused parts or gaps): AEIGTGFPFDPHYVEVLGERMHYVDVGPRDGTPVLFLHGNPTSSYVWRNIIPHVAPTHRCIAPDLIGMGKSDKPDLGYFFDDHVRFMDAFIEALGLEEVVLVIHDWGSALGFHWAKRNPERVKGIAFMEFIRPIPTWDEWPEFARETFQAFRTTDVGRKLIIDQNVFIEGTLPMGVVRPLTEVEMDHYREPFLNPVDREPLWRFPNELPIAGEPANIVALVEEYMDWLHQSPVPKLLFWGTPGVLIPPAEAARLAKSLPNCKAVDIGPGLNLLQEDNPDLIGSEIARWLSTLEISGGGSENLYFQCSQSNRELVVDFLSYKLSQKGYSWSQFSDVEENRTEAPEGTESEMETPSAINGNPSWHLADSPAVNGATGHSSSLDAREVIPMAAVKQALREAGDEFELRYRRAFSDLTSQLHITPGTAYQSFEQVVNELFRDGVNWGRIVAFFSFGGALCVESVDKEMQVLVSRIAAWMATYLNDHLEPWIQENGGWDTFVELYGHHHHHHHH

Compound | Ki [1] | Ratio (G101V/WT) [2] | IC50 [2] | Ki [3] | TR_FRET EKI G101V/WT selectivty ratio [4] | Ki [5] | Ki [6] | TR_FRET EKI BCLxL/WT selectivty ratio [6] | IC50 [7] | Ki [8] | Ki [9]
Cc1cc(OCCN2CCOCC2)ccc1CC(=O)N1CCc2cc(-c3cc(C(=O)N(c4ccc(O)cc4)c4cc(C#N)n(C)c4C)c(C)n3C)c(C(=O)N3Cc4ccccc4C[C@H]3CN3CCCCC3)cc2C1 [Example 113, N-(5-cyano-1,2-dimethyl-1H-pyrrol-3-yl)-N-(4-hydroxyphenyl)-1,2-dimethyl-5-[2-(2-{2-methyl-4-[2-(morpholin-4-yl)ethoxy]phenyl}acetyl)-7-[(3S)-3-[(piperidin-1-yl)methyl]-1,2,3,4-tetrahydroisoquinoline-2-carbonyl]-1,2,3,4-tetrahydroisoquinolin-6-yl]-1H-pyrrole-3-carboxamide] | 0.05 nM | 4.38 | 0.0278 µM | 0.13 nM | 5.2 | 0.3 nM | 3.6 nM | 69.2 | 0.0063 µM | 0.15 nM | 0.27 nM
Cc1c(N(C(=O)c2cc(-c3cc4c(cc3C(=O)N3Cc5ccccc5C[C@H]3CN3CCCCC3)CN(C(=O)Cc3ccc(OCCN5CCC(F)CC5)cc3F)CC4)n(C)c2C)c2ccc(O)cc2)cc(C#N)n1C [Example 115, N-(5-cyano-1,2-dimethyl-1H-pyrrol-3-yl)-5-[2-(2-{2-fluoro-4-[2-(4-fluoropiperidin-1-yl)ethoxy]phenyl}acetyl)-7-[(3S)-3-[(piperidin-1-yl)methyl]-1,2,3,4-tetrahydroisoquinoline-2-carbonyl]-1,2,3,4-tetrahydroisoquinolin-6-yl]-N-(4-hydroxyphenyl)-1,2-dimethyl-1H-pyrrole-3-carboxamide] | 0.03 nM | 6.05 | 0.0458 µM | 0.17 nM | 5.6 | 0.2 nM | 2.8 nM | 100.0 | 0.0072 µM | 0.08 nM | 0.3 nM
Cc1c(N(C(=O)c2cc(-c3cc4c(cc3C(=O)N3Cc5ccccc5C[C@H]3CN3CCCCC3)CN(C(=O)Cc3ccc(OCCN5CCN(CCF)CC5)cc3F)CC4)n(C)c2C)c2ccc(O)cc2)cc(C#N)n1C [Example 117, N-(5-cyano-1,2-dimethyl-1H-pyrrol-3-yl)-5-{2-[2-(2-fluoro-4-{2-[4-(2-fluoroethyl)piperazin-1-yl]ethoxy}phenyl)acetyl]-7-[(3S)-3-[(piperidin-1-yl)methyl]-1,2,3,4-tetrahydroisoquinoline-2-carbonyl]-1,2,3,4-tetrahydroisoquinolin-6-yl}-N-(4-hydroxyphenyl)-1,2-dimethyl-1H-pyrrole-3-carboxamide] | 0.05 nM | 4.09 | 0.033 µM | 0.11 nM | 5.3 | 0.3 nM | 1.7 nM | 36.2 | 0.0081 µM | 0.11 nM | 0.18 nM
Cc1c(N(C(=O)c2cc(-c3cc4c(cc3C(=O)N3Cc5ccccc5C[C@H]3CN3C[C@H]5C[C@H]5C3)CN(C(=O)Cc3ccc(OCCN5CCOCC5)cc3F)CC4)n(C)c2C)c2ccc(O)cc2)cc(C#N)n1C [Example 120, 5-{7-[(3S)-3-{[cis-3-azabicyclo[3.1.0]hexan-3-yl]methyl}-1,2,3,4-tetrahydroisoquinoline-2-carbonyl]-2-(2-{2-fluoro-4-[2-(morpholin-4-yl)ethoxy]phenyl}acetyl)-1,2,3,4-tetrahydroisoquinolin-6-yl}-N-(5-cyano-1,2-dimethyl-1H-pyrrol-3-yl)-N-(4-hydroxyphenyl)-1,2-dimethyl-1H-pyrrole-3-carboxamide] | 0.1 nM | 5.83 | 0.0186 µM | 0.3 nM | 5.2 | 0.5 nM | 5.3 nM | 53.0 | 0.0032 µM | 0.21 nM | 0.37 nM
Cc1c(N(C(=O)c2cc(-c3cc4c(cc3C(=O)N3Cc5ccccc5C[C@H]3CN3CCCCC3)CN(C(=O)Cc3ccc(OCCN5CCOC(C)(C)C5)cc3)CC4)n(C)c2C)c2ccc(O)cc2)cc(C#N)n1C [Example 121, N-(5-cyano-1,2-dimethyl-1H-pyrrol-3-yl)-5-[2-(2-{4-[2-(2,2-dimethylmorpholin-4-yl)ethoxy]phenyl}acetyl)-7-[(3S)-3-[(piperidin-1-yl)methyl]-1,2,3,4-tetrahydroisoquinoline-2-carbonyl]-1,2,3,4-tetrahydroisoquinolin-6-yl]-N-(4-hydroxyphenyl)-1,2-dimethyl-1H-pyrrole-3-carboxamide] | 0.16 nM | 5.25 | 0.0397 µM | 0.23 nM | 3.2 | 0.5 nM | 6 nM | 38.5 | 0.0076 µM | 0.34 nM | 0.56 nM
Cc1c(N(C(=O)c2cc(-c3cc4c(cc3C(=O)N3Cc5ccccc5C[C@H]3CN3CCCC[C@H]3C)CN(C(=O)Cc3ccc(OCCN5CCOCC5)cc3F)CC4)n(C)c2C)c2ccc(O)cc2)cc(C#N)n1C [Example 123, N-(5-cyano-1,2-dimethyl-1H-pyrrol-3-yl)-5-[2-(2-{2-fluoro-4-[2-(morpholin-4-yl)ethoxy]phenyl}acetyl)-7-[(3S)-3-{[(2R)-2-methylpiperidin-1-yl]methyl}-1,2,3,4-tetrahydroisoquinoline-2-carbonyl]-1,2,3,4-tetrahydroisoquinolin-6-yl]-N-(4-hydroxyphenyl)-1,2-dimethyl-1H-pyrrole-3-carboxamide] | 0.07 nM | 4.82 | 0.0185 µM | 0.13 nM | 4.2 | 0.3 nM | 2.6 nM | 35.1 | 0.0038 µM | 0.28 nM | 0.18 nM
Cc1c(N(C(=O)c2cc(-c3cc4c(cc3C(=O)N3Cc5ccccc5C[C@H]3CN3CCC[C@@H](C)C3)CN(C(=O)Cc3ccc(OCCN5CCOCC5)cc3F)CC4)n(C)c2C)c2ccc(O)cc2)cc(C#N)n1C [Example 124, N-(5-cyano-1,2-dimethyl-1H-pyrrol-3-yl)-5-[2-(2-{2-fluoro-4-[2-(morpholin-4-yl)ethoxy]phenyl}acetyl)-7-[(3S)-3-{[(3R)-3-methylpiperidin-1-yl]methyl}-1,2,3,4-tetrahydroisoquinoline-2-carbonyl]-1,2,3,4-tetrahydroisoquinolin-6-yl]-N-(4-hydroxyphenyl)-1,2-dimethyl-1H-pyrrole-3-carboxamide] | 0.12 nM | 5.62 | 0.0231 µM | 0.28 nM | 5.8 | 0.7 nM | 5.8 nM | 48.3 | 0.0041 µM | 0.58 nM | 0.34 nM
Cc1c(N(C(=O)c2cc(-c3cc4c(cc3C(=O)N3Cc5ccccc5C[C@H]3CN3CCCC[C@@H]3C)CN(C(=O)Cc3ccc(OCCN5CCOCC5)cc3F)CC4)n(C)c2C)c2ccc(O)cc2)cc(C#N)n1C [Example 125, N-(5-cyano-1,2-dimethyl-1H-pyrrol-3-yl)-5-[2-(2-{2-fluoro-4-[2-(morpholin-4-yl)ethoxy]phenyl}acetyl)-7-[(3S)-3-{[(2S)-2-methylpiperidin-1-yl]methyl}-1,2,3,4-tetrahydroisoquinoline-2-carbonyl]-1,2,3,4-tetrahydroisoquinolin-6-yl]-N-(4-hydroxyphenyl)-1,2-dimethyl-1H-pyrrole-3-carboxamide] | 0.07 nM | 4.94 | 0.0178 µM | 0.13 nM | 5.4 | 0.4 nM | 4.3 nM | 61.4 | 0.0036 µM | 0.19 nM | 0.17 nM
